From patent US20120046308A1, “NOVEL ALPHA-PHENOXYBENZENEACETIC ACID DERIVATIVE AND PHARMACEUTICAL PREPARATION COMPRISING SAME” (KOWA COMPANY, LTD., priority 2009, published 2012)
Read-outs that look alike come from different tables or passages of the source.

Columns and labels:
[1] = target: T1, angiotensin II type 1 receptor (Oryctolagus cuniculus, UniProt P34976); assay: Angiotensin II antagonistic activity in isolated rabbit blood vessels (thoracic aorta ring contraction); settings: angiotensin II (10 nM)-induced contraction
T1 construct: By using a specimen of isolated rabbit blood vessels; from tissue; host or cells: rabbit (New Zealand White) thoracic aorta ring
T1 sequence (P34976 1-359): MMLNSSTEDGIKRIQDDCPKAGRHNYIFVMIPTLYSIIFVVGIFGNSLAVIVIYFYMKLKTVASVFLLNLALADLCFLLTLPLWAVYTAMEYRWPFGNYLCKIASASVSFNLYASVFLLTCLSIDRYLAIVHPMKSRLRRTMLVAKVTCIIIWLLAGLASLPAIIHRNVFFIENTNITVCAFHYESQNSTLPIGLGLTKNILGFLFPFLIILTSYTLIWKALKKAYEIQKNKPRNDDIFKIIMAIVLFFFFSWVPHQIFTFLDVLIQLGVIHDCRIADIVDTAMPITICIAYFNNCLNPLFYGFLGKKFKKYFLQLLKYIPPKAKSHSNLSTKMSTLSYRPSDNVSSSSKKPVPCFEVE
Procedure: By using a specimen of isolated rabbit blood vessels, antagonistic activity of the compounds of the invention against angiotensin II type 1 receptor was estimated from a dose-response curve of angiotensin II-induced blood vessel contraction.
During the measurement, the inside temperature of the magnus bath was maintained at 37° C. and the bath was continuously ventilated with a sufficient amount of mixed gas (95% O2 and 5% CO2). The angiotensin II-induced contraction was converted into a relative value (%) that is based on the angiotensin II (10 nM)-induced contraction in the absence of the compounds of each example. From the concentration-response curve obtained therefrom, 50% inhibition concentration (IC50 value) was calculated by using SAS Preclinical Package Ver5.0 (trade name, manufactured by SAS institute Japan Co., Tokyo, Japan), which is a statistical analysis program.

human PPARγ2 [2] = target: T2, human PPARγ2 (Homo sapiens, UniProt P37231); assay: PPARγ activation activity, Gal4-PPARγ2 LBD luciferase transfection assay using COS7 cells; assay type: cell-based; settings: for EC50: 16 hours, luciferase activity relative to rosiglitazone = 100%; for Emax: COS-7, 16 h, maximum activity strength relative to the maximum activity of rosiglitazone, read-out: % MAX vs Rosiglitazone
T2 construct: the amino acids 182 to 505 of human PPARγ2; expressed in transfected cells; host or cells: COS7 cells (African green monkey kidney)
T2 sequence (P37231 182-505): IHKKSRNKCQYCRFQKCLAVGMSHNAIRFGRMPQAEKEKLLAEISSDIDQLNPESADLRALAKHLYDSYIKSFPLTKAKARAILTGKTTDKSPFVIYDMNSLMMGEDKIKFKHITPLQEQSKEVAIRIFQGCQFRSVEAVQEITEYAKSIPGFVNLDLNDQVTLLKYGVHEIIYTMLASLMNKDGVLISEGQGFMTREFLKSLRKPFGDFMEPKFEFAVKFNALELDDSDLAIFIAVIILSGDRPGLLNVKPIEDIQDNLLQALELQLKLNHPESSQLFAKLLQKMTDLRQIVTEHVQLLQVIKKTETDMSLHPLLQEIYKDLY
Procedure: The agonistic activity of the compounds of the invention on PPARγ was measured based on the transfection assay using COS7 cells (DS Pharma Biomedical Co., Ltd., Osaka, Japan), which are the cell line derived from the kidney of the African green monkey. COS7 cells were cultured under 5% CO2 concentration, and DMEM medium containing 10% fetal bovine serum, glutamic acid, and antibiotics was used as a medium.
As an expression vector, a chimera in which DNA binding domain of Gal4, which is a yeast transcription factor, and ligand binding domain of human PPARγ2 are fused, i.e., a fused product between the amino acids 1 to 147 of Gal4 transcription factor and the amino acids 182 to 505 of human PPARγ2, was used. Furthermore, as a reporter vector, a firefly luciferase containing five copies of Gal4 recognition sequence in the promoter region was used. Plasmid transfection to the cells was performed according to a method which uses jetPEI (trade name, manufactured by Funakoshi Co., Ltd., Tokyo, Japan). Furthermore, β-galactosidase expression vector was employed as an internal standard.
After the transfection of the cells, the medium was replaced with a DMEM medium (containing 1% serum) added with the compound, and the cells were further cultured for 16 hours. After that, the luciferase activity and β-galactosidase activity in the cell lysis solution were measured.
For the present test, dimethyl sulfoxide (DMSO) was used for dissolution and dilution of the test compounds, and during the cell treatment, the DMSO concentration in DMEM medium (containing 1% serum) was adjusted to 0.1%. As a positive compound, rosiglitazone (trade name, manufactured by ALEXIS Corporation, Switzerland) was used. The luciferase activity (%) of the test compounds (1 to 30 μmol/L) was calculated when the luciferase activity of rosiglitazone (3 to 10 μmol/L) is 100% and the luciferase activity in the absence of the test compound is 0%. The 50% effective concentration of the test compound (EC50, 50% effect concentration) was calculated by using SAS Preclinical Package Ver5.0 (trade name, manufactured by SAS institute Japan Co., Tokyo, Japan), which is a statistical analysis program.

human PPARγ2 [3] = target: T2, human PPARγ2; assay: as above; assay type: cell-based; settings: maximum activity relative to rosiglitazone

SMILES | IC50 [1] [nM] | EC50 (human PPARγ2 [2]; COS7 cells, read-out: EC50) [nM] | Emax (human PPARγ2 [2]) [%] | maximum activity compared with that of termisartan (human PPARγ2 [3]) | EC50 (human PPARγ2 [2]; EC50, COS7 cells) [nM]
CCCCc1nc(C)n(-c2ccccn2)c(=O)c1Cc1cc(CCC)c(OC(C(=O)O)c2ccccc2)c(CCC)c1 (stereo not drawn) [Example 1, 2-[4-[{4-butyl-2-methyl-6-oxo-1-(pyridin-2-yl)-1,6-dihydropyrimidin-5-yl}methyl]-2,6-dipropylphenoxy]-2-phenylacetic acid] | 530 | 3070 | 32 | – | –
CCCCc1nc(C)n(-c2ccccn2)c(=O)c1Cc1cc(CCC)c(OC(C(=O)O)c2ccc(Cl)cc2)c(CCC)c1 (stereo not drawn) [Example 9] | – | 540 | 47 | equal to or more than that of termisartan | –
CCCCc1nc(C)n(-c2ccc(OCc3ccccc3)cc2)c(=O)c1Cc1cc(CCC)c(OC(C(=O)O)c2ccccc2)c(CCC)c1 (stereo not drawn) [Example 12, 2-[4-[[1-{4-(benzyloxy)phenyl}-4-butyl-2-methyl-6-oxo-1,6-dihydropyrimidin-5-yl]methyl]-2,6-dipropylphenoxy]-2-phenyla cetic acid] | – | 440 | 57.5 | equal to or more than that of termisartan | –
CCCCc1nc(C)n(-c2ccc(OC(C)C)cc2)c(=O)c1Cc1cc(CCC)c(OC(C(=O)O)c2ccccc2)c(CCC)c1 (stereo not drawn) [Example 14] | – | 600 | 63 | equal to or more than that of termisartan | –
CCCCc1nc(C)n(-c2ncc(OC)cn2)c(=O)c1Cc1cc(CCC)c(OC(C(=O)O)c2ccccc2)c(CCC)c1 (stereo not drawn) [Example 15] | 92 | 2710 | 47.2 | equal to or more than that of termisartan | –
CCCCc1nc(C)n(-c2ncc(OCC)cn2)c(=O)c1Cc1cc(CCC)c(OC(C(=O)O)c2ccccc2)c(CCC)c1 (stereo not drawn) [Example 20] | 115 | 2590 | 58.6 | – | –
CCCCc1nc(C)n(Cc2ccccc2)c(=O)c1Cc1cc(CCC)c(OC(C(=O)O)c2ccccc2)c(CCC)c1 (stereo not drawn) [Example 28, 2-[4-{(1-benzyl-4-butyl-2-methyl-6-oxo-1,6-dihydropyrimidin-5-yl)methyl}-2,6-dipropylphenoxy]-2-phenylacetic acid] | 724 | 850 | 21.3 | – | –
CCCCc1nc(C)n(CC2CCCCC2)c(=O)c1Cc1cc(CCC)c(OC(C(=O)O)c2ccccc2)c(CCC)c1 (stereo not drawn) [Example 30, 2-[4-[(4-butyl-1-(cyclohexylmethyl)-2-methyl-6-oxo-1,6-dihydropyrimidin-5-yl}methyl]-2,6-dipropylphenoxy]-2-phenylacet ic acid] | 836 | 280 | 28.5 | – | –
CCCCc1nc(C)n(CCOC)c(=O)c1Cc1cc(CCC)c(OC(C(=O)O)c2ccccc2)c(CCC)c1 (stereo not drawn) [Example 33, 2-[4-[{4-butyl-1-(2-methoxyethyl)-2-methyl-6-oxo-1,6-dihydropyrimidin-5-yl}methyl]-2,6-dipropylphenoxy]-2-phenylacetic acid] | 250 | 2670 | – | – | –
CCCc1nc2c(C)cc(-c3nc4ccccc4n3C)cc2n1Cc1ccc(-c2ccccc2C(=O)O)cc1 [telmisartan, reference compound] | 25 | – | 30 to 50 | – | 1000 to 5000
